What was measured:
[1] = system: human GABA α1β3β2 receptors; experiment: GABAa, 3H-muscimol binding assay; conditions: for % GABA Example: activity at 10 μM as percentage of activity of control compound P18 at 10 μM (increase of 3H-muscimol binding); for % GABA Parent: parent compound without R^4 heteroaryl, activity at 10 μM as percentage of activity of control compound P18 at 10 μM
Method: Membranes from recombinant Ltk cells expressing human GABA α1β3β2 receptors were suspended in an ice-cold solution of 100 mM KCl, 10 mM KH2PO4, adjusted to pH=7.4 with 1 M KOH. Tritiated muscimol (PerkinElmer, Wellesley, Mass.) at a concentration of 2 nM, and serial five-fold dilutions of test compounds at 10 μM, 2.0 μM, 400 nM, 80 nM, 16 nM, 3.2 nM, 0.64 nM and 0.13 nM were mixed in 96-well plates containing 200 μL of membrane suspension. Cold muscimol and compound P18 were used as negative and positive controls respectively. The assay mixture was incubated at 4° C. for 2 hours, then harvested on GF/C filter plates and washed with ice-cold 50 mM Tris-Ci buffer. The filter plates were dried and counted in a Wallac MicroBeta® Trilux detector (Model 1450-030; PerkinElmer, Wellesley, Mass.), and the data were downloaded and analyzed using Prism 3.0. The activity of compound P18 at 10 μM was used as reference for the test compounds, and it was expressed as increasing ^3H-muscimol binding by 100%, whereas cold muscimol at 2 μM antagonized ^3H-muscimol binding by 100%. The tested compound's activity at 10 μM was expressed as a percentage of compound P18's activity at 10 μM.
As a reference, the parent compound (the compound not substituted with a R^4 heteroaryl, such as pyrazole or 1,2,4-oxadiazole, as indicated below) is also shown with its Gamma Amino Butyric Acid (GABA) Receptor activity. […] As a result, the compounds of the present invention in which R^4 is a heteroaryl, such as pyrazole or 1,2,4-oxadiazole, have the unexpected benefits of minimizing off target activity at the GABA receptor.
Note: % GABA is defined as the GABA activity of the indicated compound expressed as a percentage of the activity of control compound P18. NA=data not available.

[2] = target: T1, recombinant human CB1 receptor (Homo sapiens, UniProt P21554); experiment: Cannabinoid Receptor-1 (CB1) Functional Activity Assay (intracellular cAMP in CB1-CHO cells); type: cell-based; conditions: for EC50: CB1-CHO cells, forskolin-stimulated cAMP, read-out: EC50 in the CB1 functional activity assay; for functional mode at CB1 receptor: CB1 functional activity assay, cAMP
T1 construct: expressed in transfected cells
Method: The functional activation of CB1 receptor is based on recombinant human CB1 receptor expressed in CHO cells (Felder et al, Mol. Pharmacol. 48: 443-450, 1995). To determine the agonist activity or inverse agonist activity of any test compound, 50 ul of CB1-CHO cell suspension are mixed with test compound and 70 ul assay buffer containing 0.34 mM 3-isobutyl-1-methylxanthine and 5.1 uM of forskolin in 96-well plates. The assay buffer is comprised of Earle's Balanced Salt Solution supplemented with 5 mM MgCl2 1 mM glutamine, 10 mM HEPES, and 1 mg/mL bovine serum albumin. The mixture is incubated at room temperature for 30 minutes, and terminated by adding 30 ul/well of 0.5M HCl. The total intracellular cAMP level is quantitated using the New England Nuclear Flashplate and cAMP radioimmunoassay kit.
To determine the antagonist activity of test compound, the reaction mixture also contains 0.5 nM of the agonist CP55940 (or 50 nM of methanandamide), and the reversal of the CP55940 (or methanandamide) effect is quantitated with increasing concentration of the test compound. Intracellular cAMP is determined as described above. An IC50 value for the test compound is calculated from the titration curve.

[3] = target: T1, recombinant human CB1 receptor; experiment: Cannabinoid Receptor-1 (CB1) Binding Assay ([3H]CP-55940 displacement); conditions: recombinant human CB1 receptor expressed in CHO cells, 0.6 nM [3H]CP-55940; read-out: CB1 binding IC50
Method: Binding affinity determination is based on recombinant human CB1 receptor expressed in Chinese Hamster Ovary (CHO) cells (Felder et al, Mol. Pharmacol. 48: 443-450, 1995). Total assay volume is 250 μl (240 μl CB1 receptor membrane solution plus 5 μl test compound solution plus 5 μl [3H]CP-55940 solution). Final concentration of [3H]CP-55940 is 0.6 nM. Binding buffer contains 50 mM Tris-HCl, pH 7.4, 2.5 mM EDTA, 5 mM MgCl2, 0.5 mg/mL fatty acid free bovine serum albumin and protease inhibitors (Cat#P8340, from Sigma). To initiate the binding reaction, 5 μl of radioligand solution is added, the mixture is incubated with gentle shaking on a shaker for 1.5 h at 30° C. The binding is terminated by using 96-well harvester and filtering through GF/C filter presoaked in 0.05% polyethylenimine. The bound radiolabel is quantitated using scintillation counter. Apparent binding affinities for various compounds are calculated from IC50 values (DeBlasi et al., Trends Pharmacol Sci 10: 227-229, 1989).

T1 sequence (P21554 whole entry): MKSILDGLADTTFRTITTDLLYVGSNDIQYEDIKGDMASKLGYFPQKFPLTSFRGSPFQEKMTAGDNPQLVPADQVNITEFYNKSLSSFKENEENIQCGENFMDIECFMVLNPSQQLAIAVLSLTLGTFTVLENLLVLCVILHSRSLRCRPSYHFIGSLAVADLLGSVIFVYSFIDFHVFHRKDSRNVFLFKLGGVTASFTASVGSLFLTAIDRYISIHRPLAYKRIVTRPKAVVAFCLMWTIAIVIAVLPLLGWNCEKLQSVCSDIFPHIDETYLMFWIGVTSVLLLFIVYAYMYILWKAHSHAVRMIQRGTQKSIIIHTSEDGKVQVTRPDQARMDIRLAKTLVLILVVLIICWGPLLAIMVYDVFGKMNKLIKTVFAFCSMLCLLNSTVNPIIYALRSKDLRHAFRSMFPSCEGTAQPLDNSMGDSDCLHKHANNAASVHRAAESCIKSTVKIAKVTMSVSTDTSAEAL

% GABA Example [1] [%] | % GABA Parent [1] [%] | SMILES | also measured
38 |  | CC(=O)Nc1c(C(=O)C(C)(C)O)oc2nc(-c3ccc(-c4cn[nH]c4)cc3Cl)c(-c3ccc(Cl)cc3)cc12 [Example 1, N-[5-(4-Chlorophenyl)-6-[2-chloro-4-(1H-pyrazol-4-yl)phenyl]-2-(2-hydroxy-2-methylpropanoyl)furo[2,3-b]pyridin-3-yl]acetamide] | EC50 [2]: < 20 nM; functional mode at CB1 receptor [2]: functional inverse agonists; IC50 [3]: 2 nM
17 |  | CC(=O)Nc1c(C(=O)C(C)C)oc2nc(-c3ccc(-c4cc[nH]n4)cc3Cl)c(-c3ccc(Cl)cc3)cc12 [Example 2, N-{5-(4-Chlorophenyl)-6-[2-chloro-4-(1H-pyrazol-3-yl)phenyl]-2-isobutyrylfuro[2,3-b]pyridin-3-yl}acetamide] | EC50 [2]: < 20 nM; functional mode at CB1 receptor [2]: functional inverse agonists; IC50 [3]: 6 nM
29 |  | CC(C)(C)C(=O)c1oc2nc(-c3ccc(-c4cn[nH]c4)cc3Cl)c(-c3ccc(Cl)cc3)cc2c1NC(=O)CO [Example 32, N-[5-(4-Chlorophenyl)-6-[2-chloro-4-(1H-pyrazol-4-yl)phenyl]-2-(2,2-dimethylpropanoyl)furo[2,3-b]pyridin-3-yl]-2-hydroxyacetamide] | 
34 |  | CC(=O)Nc1c(C(=O)C(C)C)oc2nc(-c3ccc(-c4c[nH]nc4C)cc3Cl)c(-c3ccc(Cl)cc3)cc12 [Example 33, N-[6-[2-Chloro-4-(3-methyl-1H-pyrazol-4-yl)phenyl]-5-(4-chlorophenyl)-2-isobutyrylfuro[2,3-b]pyridin-3-yl]acetamide] | 
29 |  | Cc1n[nH]cc1-c1ccc(-c2nc3oc(C(=O)C(C)(C)O)c(C)c3cc2-c2ccc(Cl)cc2)c(Cl)c1 [Example 34, 1-[6-[2-Chloro-4-(3-methyl-1H-pyrazol-4-yl)phenyl]-5-(4-chlorophenyl)-3-methylfuro[2,3-b]pyridin-2-yl]-2-hydroxy-2-methylpropan-1-one] | 
59 |  | CCc1c(C(=O)C(C)(C)O)oc2nc(-c3ccc(-c4c[nH]nc4C)cc3Cl)c(-c3ccc(Cl)cc3)cc12 [Example 35, 1-[6-[2-Chloro-4-(3-methyl-1H-pyrazol-4-yl)phenyl]-5-(4-chlorophenyl)-3-ethylfuro[2,3-b]pyridin-2-yl]-2-hydroxy-2-methylpropan-1-one] | 
16 |  | Cc1n[nH]cc1-c1ccc(-c2nc3oc(C(=O)C(C)(C)C)c(C)c3cc2-c2ccc(Cl)cc2)c(Cl)c1 [Example 36, 1-[6-[2-Chloro-4-(3-methyl-1H-pyrazol-4-yl)phenyl]-5-(4-chlorophenyl)-3-methylfuro[2,3-b]pyridin-2-yl]-2,2-dimethylpropan-1-one] | 
29 |  | Cc1n[nH]cc1-c1ccc(-c2nc3oc(C(=O)C(C)C)c(N4CCCC4=O)c3cc2-c2ccc(Cl)cc2)c(Cl)c1 [Example 39, 1-[6-[2-Chloro-4-(3-methyl-1H-pyrazol-4-yl)phenyl]-5-(4-chlorophenyl)-2-isobutyrylfuro[2,3-b]pyridin-3-yl]pyrrolidin-2-one] | 
5 |  | Cc1c(C(=O)C(C)(C)C)oc2nc(-c3ccc(-c4ncon4)cc3Cl)c(-c3ccc(Cl)cc3)cc12 [Example 42, 1-[6-[2-Chloro-4-(1,2,4-oxadiazol-3-yl)phenyl]-5-(4-chlorophenyl)-3-methylfuro[2,3-b]pyridin-2-yl]-2,2-dimethylpropan-1-one] | 
 | 99 | CC(=O)Nc1c(C(=O)C(C)(C)O)oc2nc(-c3ccccc3Cl)c(-c3ccc(Cl)cc3)cc12 [Example P1, reference compound] | 
 | 107 | CC(=O)Nc1c(C(=O)C(C)C)oc2nc(-c3ccccc3Cl)c(-c3ccc(Cl)cc3)cc12 [Example P2, reference compound] | 
 | 67 | CC(=O)Nc1c(C(=O)C(C)(C)C)oc2nc(-c3ccccc3Cl)c(-c3ccc(Cl)cc3)cc12 [Example P3, reference compound] | 
 | 76 | CCC(=O)c1oc2nc(-c3ccccc3Cl)c(-c3ccc(Cl)cc3)cc2c1NC(C)=O [Example P4, reference compound] | 
 | 75 | Cc1c(C(=O)C(C)(C)O)oc2nc(-c3ccccc3Cl)c(-c3ccc(Cl)cc3)cc12 [Example P7, reference compound] | 
 | 25 | Cc1c(C(=O)C(C)(C)C)oc2nc(-c3ccccc3Cl)c(-c3ccc(Cl)cc3)cc12 [Example P8, reference compound] | 
 | 29 | Cc1c(S(=O)(=O)C(C)(C)C)oc2nc(-c3ccccc3Cl)c(-c3ccc(Cl)cc3)cc12 [Example P9, reference compound] | 
 | 94 | C[C@H](O)C(=O)Nc1c(C(=O)C(C)(C)C)oc2nc(-c3ccccc3Cl)c(-c3ccc(Cl)cc3)cc12 [Example P11, reference compound] | 
 | 40 | CC(C)(C)C(=O)c1oc2nc(-c3ccccc3Cl)c(-c3ccc(Cl)cc3)cc2c1C(N)=O [Example P12, reference compound] | 
 | 91 | CC(C)(O)C(=O)c1oc2nc(-c3ccccc3Cl)c(-c3ccc(Cl)cc3)cc2c1N [Example P13, reference compound] | 
 | 50 | CCC(=O)c1oc2nc(-c3ccccc3Cl)c(-c3ccc(Cl)cc3)cc2c1C [Example P15, reference compound] | 
 | 90 | CC(C)(C)C(=O)c1oc2nc(-c3ccccc3Cl)c(-c3ccc(Cl)cc3)cc2c1NC(=O)CO [Example P16, reference compound] | 
 | 100 | CC(C)C(=O)c1oc2nc(-c3ccccc3Cl)c(-c3ccc(Cl)cc3)cc2c1N1CCCC1=O [Example P17, reference compound] | 
 | 96 | CCc1c(C(=O)C(C)(C)O)oc2nc(-c3ccccc3Cl)c(-c3ccc(Cl)cc3)cc12 [Example P19, reference compound] | 
 | 50 | CC(C)(C)C(=O)c1oc2nc(-c3ccccc3Cl)c(-c3ccc(Cl)cc3)cc2c1CO [Example P20, reference compound] | 
 | 62 | CC(=O)c1c(C(=O)C(C)(C)C)oc2nc(-c3ccccc3Cl)c(-c3ccc(Cl)cc3)cc12 [Example P21, reference compound] | 

SMILES | % GABA Example [1] [%] | % GABA Parent [1] [%] | also measured
CC(C)(C)C(=O)c1oc2nc(-c3ccccc3Cl)c(-c3ccc(Cl)cc3)cc2c1N [Example P5, reference compound] |  | 33 | 
Cc1c(C(=O)CC(C)C)oc2nc(-c3ccccc3Cl)c(-c3ccc(Cl)cc3)cc12 [Example P10, reference compound] |  | 59 | 
Cc1c(C(=O)C(C)C)oc2nc(-c3ccccc3Cl)c(-c3ccc(Cl)cc3)cc12 [Example P14, reference compound] |  | 51 | 
CC(C)(O)C(=O)c1oc2nc(-c3ccccc3Cl)c(-c3ccc(Cl)cc3)cc2c1NC(=O)CO [Example P18, reference compound] |  | 100 | 
